Patent USRE38332E1, “Selected soluble esters of hydroxyl-containing indolocarbazoles” (Cephalon, Inc., priority 1995, dated 2003)

What was measured:
[1] = In vitro metabolism of I-5 esters in human plasma; format: in vitro ADME; details: 5000 ng/mL, 37° C.
Protocol: (§1) Freshly-collected plasma from male Sprague-Dawley rats and presumably-healthy drug-free male humans was pooled and immediately frozen. The plasma was kept frozen at −90° C. and each aliquot was thawed only once for use in incubations. Stock solutions of the indolocarbazole esters were prepared in DMSO and were used to prepare standard curves in plasma that had been boiled to two minutes. Boiled plasma was divided into 500 μL aliquots, mixed with an aliquot of the internal standard, and spiked with the respective stock indolocarbazole ester solutions to prepare the standard curve. Thawed plasma was divided into 500 μL aliquots, placed in screw-cap vials, mixed with internal standard, and spiked with stock solutions of the respective indolocarbazole esters to yield a nominal concentration of 5000 ng/mL.
(§2) Incubations were then performed at 37° C. in a shaking water bath for 0, 0.5, 1, 2, 5, 10, 15, 30, and 60 minutes and quenched by addition of 5 mL methylene chloride. All tubes (standards and experimentals) were extracted for 15 minutes by shaking, and centrifuged. The methylene chloride layer was removed, dried under a stream of nitrogen, and reconstituted in DMSO. Fifty μL of the reconstituted extracts were analyzed by reverse-phase HPLC with detection at 290 nm. The mobile phase and gradient conditions are given below: […]

[2] = Solubility of the esters at 1 mg/ml in water and buffer solutions; details: for solubility in Tris buffer: 10 mM Tris buffer pH 9; for solubility in acetate buffer: 10 mM acetate buffer pH 4; for solubility in phosphate buffer: 10 mM phosphate buffer pH 7; for solubility in water: water (Solution 1)
Protocol: Indolocarbazole esters were dissolved in water, dimethylsulfoxide (DMSO) and the following buffer solutions to determine solubility and to observe conversion to indolocarbazole I-5. Samples were analyzed by HPLC using UV detection at 290 nm.
Solution 2 was a 10 mM acetate buffer at pH 4 which was prepared by weighing 0.68 g of sodium acetate 3H2O into 500 ml of water and adjusting the pH with acetic acid.
Solution 3 was a 10 mM phosphate buffer, pH 7, which was prepared by weighing 0.30 g of monobasic sodium phosphate and 0.36 g of dibasic sodium phosphate into 500 ml of water, stirring until completely dissolved, and adjusting the pH with hydrochloric acid.
Solution 4 was a 10 mM Tris buffer, pH 9, which was prepared by weighing 0.79 g of Tris (tris(hydroxymethyl)aminomethane hydrochloride) into 500 ml of water, stirring until completely dissolved, and adjusting the pH with sodium hydroxide.
Sample solutions were prepared by weighing 0.5-1 mg of the indolocarbazole ester into an amber 1.5 ml autosampler vial, to which the appropriate quantity of one of the buffer solutions was added, in order to achieve a final concentration of 1 mg/ml. The sample solutions were vortexed and sonicated for 10 minutes. Fifty μl aliquots were placed into 1.5 ml amber autosampler vials. The reaction was quenched at a selected time interval by addition of 450 μl DMSO to the vial.

[3] = test system: ChAT activity in spinal cord cultures; assay: Effect of indolocarbazole esters on ChAT activity in dissociated spinal cord cultures; format: cell-based, rat
Protocol: The effect of indolocarbazole esters of the invention on ChAT activity was assayed in dissociated spinal cord cultures prepared from fetal rats. ChAT is the enzyme that catalyzes the synthesis of the neurotransmitter acetylcholine, and it is a specific biochemical marker for cholinergic neurons. In the spinal cord, the large majority of cholinergic neurons are motor neurons. Assay of this enzyme may thus be used as an indication of the effects of a factor (or factors) on the survival and/or differentiation of cholinergic neurons and/or regulation of this enzyme. The procedure used for the assay is that described in Example 6 of WO 94/02488. Fourteen esters were tested in the spinal cord ChAT assay to determine their relative efficacy, and the results are summarized in Table 4.

[4] = In vitro metabolism of I-5 esters in rat plasma; format: in vitro ADME; details: 5000 ng/mL, 37° C.
Protocol: as §1, §2

| hydrolysis, conversion to indolocarbazole I-5 [1] | solubility in Tris buffer [2] | solubility in acetate buffer [2] | solubility in phosphate buffer [2] | solubility in water [2] | Compound | Spinal Cord ChAT Activity (% of Control) 500 nM [3] | Spinal Cord ChAT Activity (% of Control) 1000 nM [3] | maximum rates of hydrolysis [4] | increase of ChAT activity over control ([3]; 10 μM) | hydrolysis of the ester linkage, liberation of indolocarbazole I-5 [4] |
| --- | --- | --- | --- | --- | --- | --- | --- | --- | --- | --- |
|  | not completely soluble | not completely soluble | not completely soluble | not completely soluble | COC1(COC(=O)c2cccnc2)CC2OC1(C)n1c3ccccc3c3c4c(c5c6ccccc6n2c5c31)C(=O)NC4.Cl (stereo not shown) [Example 5, (I-5)-Pyridine-3-carboxylate Hydrochloride] | 137 % of Control | 139 % of Control |  | *This compound increases ChAT activity 169% over control at 10 μM |  |
|  | not completely soluble | completely soluble | not completely soluble | completely soluble | COC1(COC(=O)CN(C)C)CC2OC1(C)n1c3ccccc3c3c4c(c5c6ccccc6n2c5c31)C(=O)NC4.Cl (stereo not shown) [Example 7, (I-5)-N,N-Dimethylglycinate Hydrochloride] | 132 % of Control | 151 % of Control |  |  |  |
|  | not completely soluble | completely soluble | not completely soluble | completely soluble | COC1(COC(=O)C(N)Cc2cnc[nH]2)CC2OC1(C)n1c3ccccc3c3c4c(c5c6ccccc6n2c5c31)C(=O)NC4.Cl.Cl (stereo not shown) [Example 9, (I-5) Histidinate Dihydrochloride] | 158 % of Control | 143 % of Control |  |  |  |
|  | not completely soluble | completely soluble | not completely soluble | completely soluble | COC1(COC(=O)C(C)(C)N)CC2OC1(C)n1c3ccccc3c3c4c(c5c6ccccc6n2c5c31)C(=O)NC4.Cl (stereo not drawn) [Example 12, (I-5)-α-Aminoisobutyrate Hydrochloride] | 155 % of Control | 150 % of Control |  |  |  |

More lines, now with the values behind:

| Compound | hydrolysis, conversion to indolocarbazole I-5 [1] | solubility in Tris buffer [2] | solubility in acetate buffer [2] | solubility in phosphate buffer [2] | solubility in water [2] | Spinal Cord ChAT Activity (% of Control) 500 nM [3] | Spinal Cord ChAT Activity (% of Control) 1000 nM [3] | maximum rates of hydrolysis [4] | increase of ChAT activity over control ([3]; 10 μM) | hydrolysis of the ester linkage, liberation of indolocarbazole I-5 [4] |
| --- | --- | --- | --- | --- | --- | --- | --- | --- | --- | --- |
| COC1(COC(=O)C(N)CCCCN)CC2OC1(C)n1c3ccccc3c3c4c(c5c6ccccc6n2c5c31)C(=O)NC4.Cl.Cl (stereo not shown) [Example 1, (I-5)-Lysinate Dihydrochloride] | hydrolyzed rapidly | completely soluble | completely soluble | completely soluble | completely soluble | 150 % of Control | 153 % of Control |  |  |  |
| COC1(COC(=O)CN)CC2OC1(C)n1c3ccccc3c3c4c(c5c6ccccc6n2c5c31)C(=O)NC4.Cl (stereo not shown) [Example 2, (I-5)-Glycinate Hydrochloride] |  |  |  |  |  | 157 % of Control | 151 % of Control | more extensively hydrolyzed |  |  |
| COC1(COC(=O)C(C)N)CC2OC1(C)n1c3ccccc3c3c4c(c5c6ccccc6n2c5c31)C(=O)NC4.Cl (stereo not shown) [Example 3, (I-5)-Alaninate Hydrochloride] | not detectable | not completely soluble | completely soluble | not completely soluble | completely soluble | 151 % of Control | 132 % of Control | more extensively hydrolyzed |  |  |
| COC1(COC(=O)CCC(=O)O)CC2OC1(C)n1c3ccccc3c3c4c(c5c6ccccc6n2c5c31)C(=O)NC4 (stereo not shown) [Example 4, (I-5)-Hydrogen Succinate] |  | not completely soluble | not completely soluble | not completely soluble | not completely soluble | 150 % of Control | 154 % of Control |  |  |  |
| COC1(COC(=O)c2ccc[n+](C)c2)CC2OC1(C)n1c3ccccc3c3c4c(c5c6ccccc6n2c5c31)C(=O)NC4.[I-] (stereo not shown) [Example 6, (I-5)-Pyridine-3-carboxylate Methiodide] |  | not completely soluble | not completely soluble | not completely soluble | not completely soluble | 149 % of Control | 150 % of Control |  |  |  |
| COC1(COC(=O)C(N)CCCNC(=N)N)CC2OC1(C)n1c3ccccc3c3c4c(c5c6ccccc6n2c5c31)C(=O)NC4.Cl.Cl (stereo not shown) [Example 10, (I-5)-Argininate Dihydrochloride] | hydrolyzed rapidly |  |  |  |  | 128 % of Control | 170 % of Control |  |  | complete prior to the first sampling period |
| COC1(COC(=O)C(N)CCC(=O)O)CC2OC1(C)n1c3ccccc3c3c4c(c5c6ccccc6n2c5c31)C(=O)NC4.Cl (stereo not shown) [Example 13, (I-5)-Glutamate Hydrochloride] |  |  |  |  |  | 168 % of Control | 142 % of Control |  |  |  |
